This note sets out measurements from ChEMBL document CHEMBL1143983, “A photoswitchable ITAM peptidomimetic: synthesis and real time surface plasmon resonance (SPR) analysis of the effects of cis-trans isomerization on binding” (Bioorg Med Chem, 2008).

For this assay, the target named is Tyrosine-protein kinase SYK (Homo sapiens, UniProt P43405). Nature of the assay: Binding affinity to Syk tSH2 domain by SPR binding assay. (In general: In SPR one partner is held on a chip, and binding of the other changes the refractive index at the surface.)

A word on the Kd: it is a measure of binding affinity in units of concentration. A low value points to a tighter complex.

`CC(=O)N[C@@H](Cc1ccc(OP(=O)(O)O)cc1)C(=O)N[C@H](C(=O)NCC(=O)N[C@@H](CC(C)C)C(=O)NCC(=O)NCc1ccc(/N=N/c2ccc(C(=O)NCC(=O)N[C@@H](Cc3ccc(OP(=O)(O)O)cc3)C(=O)N[C@@H](CCC(=O)O)C(=O)N[C@H](C(=O)N[C@@H](CC(C)C)C(N)=O)[C@H](C)O)cc2)cc1)[C@H](C)O` registered a Kd of 65 nM.
